In brackets after ≈: the same amount, converted by molar mass. Activity calls are given as the source filed them.

The first test concerns Streptococcus pneumoniae. Description: Antibacterial activity against Streptococcus pneumoniae assessed as suppression of visible growth incubated for 24 hrs by CLSI-based broth microdilution method. It is filed as functional. Background: In broth dilution the organism is exposed to a series of concentrations in liquid medium.
Regarding `C#CCSc1ccc(C(O)c2ccc3c(c2)B(O)OC3)cc1` (centres undefined), the minimal inhibitory concentration (MIC) – broadly, the smallest concentration in the dilution series that meets the test's criterion for growth inhibition – turned out to be 16 µg/mL (≈ 51.6 µM). The same measure, in the same setting: under `C=Cc1ccc(C(O)c2ccc3c(c2)B(O)OC3)cc1` (centres undefined) stands 8 µg/mL (≈ 30.1 µM); under `OB1OCc2ccc(C(O)c3ccc(F)cc3)cc21` (centres undefined), “inactive”; under `OB1OCc2ccc(C(O)c3ccc(-c4ccccc4)cc3)cc21` (centres undefined), 4 µg/mL (≈ 12.7 µM). In the case of `CC(=O)CSc1ccc(C(O)c2ccc3c(c2)B(O)OC3)cc1` (centres undefined), the minimum inhibitory concentration (MIC) was 6 µg/mL (≈ 18.3 µM). As for `CSc1ccc(C(O)c2ccc3c(c2)B(O)OC3)cc1` (centres undefined), the MIC was determined as 32 µg/mL (≈ 112 µM). Still for that read-out and setting: under `OB1OCc2ccc(C(O)c3ccc(C(F)(F)F)cc3)cc21` (centres undefined) stands 32 µg/mL (≈ 104 µM). The same measure, in the same setting: under `OB1OCc2ccc(C(O)c3ccccc3)cc21` (centres undefined) stands 10 µg/mL (≈ 41.7 µM); under `N#CCSc1ccc(C(O)c2ccc3c(c2)B(O)OC3)cc1` (centres undefined), 8 µg/mL (≈ 25.7 µM); under `OB1OCc2ccc(C(O)c3ccc(S)cc3)cc21` (centres undefined), 8 µg/mL (≈ 29.4 µM). On to `CC1(C)S[C@@H]2[C@H](NC(=O)[C@H](N)c3ccccc3)C(=O)N2[C@H]1C(=O)O` [AMPICILLIN], for which the MIC is 0.125 µg/mL (≈ 0.358 µM).

System in a further test: not listed separately
Description: Inhibition of Streptococcus pneumoniae LeuRS using [3H]Leucine as substrate preincubated for 20 mins.
On to `CCOC(=O)CC(=O)CSc1ccc(C(O)c2ccc3c(c2)B(O)OC3)cc1` (centres undefined), for which inhibition was half-maximal at 7.63 µM (IC50). In other words, the single-digit micromolar range. In the case of `CS(=O)(=O)c1ccc(C(O)c2ccc3c(c2)B(O)OC3)cc1` (centres undefined), the midpoint of inhibition, the IC50, lay at 32.5 µM. As for `C=CCSc1ccc(C(O)c2ccc3c(c2)B(O)OC3)cc1` (centres undefined), half-maximal inhibition (IC50) required 8.27 µM. Same read-out and setting: under `OB1OCc2ccc(C(O)c3ccc(SC(F)(F)F)cc3)cc21` (centres undefined) stands 25.7 µM; under `OB1OCc2ccc(C(O)c3cccc(F)c3)cc21` (centres undefined), 56.1 µM; under `C[S+]([O-])c1ccc(C(O)c2ccc3c(c2)B(O)OC3)cc1` (centres undefined), above 100 µM.

Turning to `OB1OCc2ccc(C(O)c3ccc(Cl)cc3)cc21` (centres undefined), the concentration for half-maximal inhibition (IC50) (as a rule, the concentration at which inhibition is half-maximal) is 7.44 µM. Compound `OB1OCc2ccc(C(O)c3cccc(Cl)c3)cc21` (centres undefined) gave an IC50 of 23.7 µM. Against the preceding compound, the IC50 is about 3.2-fold higher.

As to `COC(=O)c1ccc(CSc2ccc(C(O)c3ccc4c(c3)B(O)OC4)cc2)cc1` (centres undefined), the IC50 worked out at 22.7 µM. Same read-out and setting: under `CSc1cccc(C(O)c2ccc3c(c2)B(O)OC3)c1` (centres undefined) stands 23.9 µM; under `C#CCSc1ccc(C(O)c2ccc3c(c2)B(O)OC3)cc1` (centres undefined), 3.77 µM; under `C=Cc1ccc(C(O)c2ccc3c(c2)B(O)OC3)cc1` (centres undefined), 4.63 µM.

As to `OB1OCc2ccc(C(O)c3ccc(F)cc3)cc21` (centres undefined), the IC50 was 4.86 µM. In the case of `C[Si](C)(C)CSc1ccc(C(O)c2ccc3c(c2)B(O)OC3)cc1` (centres undefined), the IC50 amounted to 13.3 µM. The same measure, in the same setting: under `OB1OCc2ccc(C(O)c3ccc(SCC(F)(F)F)cc3)cc21` (centres undefined) stands 3.63 µM; under `OB1OCc2ccc(C(O)c3ccc(SCc4ccncc4)cc3)cc21` (centres undefined), 7.17 µM; under `CC(C)(C)OC(=O)NCCSc1ccc(C(O)c2ccc3c(c2)B(O)OC3)cc1` (centres undefined), 70.2 µM.

In turn, `Nc1ccc(CSc2ccc(C(O)c3ccc4c(c3)B(O)OC4)cc2)cc1` (centres undefined) came in with an IC50 of 11.7 µM. Same read-out and setting: under `CC(=O)COc1ccc(C(O)c2ccc3c(c2)B(O)OC3)cc1` (centres undefined) stands 7 µM; under `OB1OCc2ccc(C(O)c3ccc(-c4ccccc4)cc3)cc21` (centres undefined), 5.48 µM.

In the case of `CC(=O)c1ccc(C(O)c2ccc3c(c2)B(O)OC3)cc1` (centres undefined), the IC50 is 11 µM. Against the preceding compound, the IC50 is about 2-fold higher. Compound `O=Cc1cc(C(O)c2ccc3c(c2)B(O)OC3)ccc1F` (centres undefined) showed a half-maximal inhibitory concentration (IC50) of 66.8 µM. Compound `OB1OCc2ccc(C(O)c3ccc(SCc4ccccc4)cc3)cc21` (centres undefined) yielded a half-inhibitory concentration (IC50) of 27.5 µM. On the same count and under the same terms, under `CC(=O)CSc1ccc(C(O)c2ccc3c(c2)B(O)OC3)cc1` (centres undefined) stands 0.95 µM; under `N#Cc1ccc(C(O)c2ccc3c(c2)B(O)OC3)cc1` (centres undefined), 8.14 µM; under `COCCSc1ccc(C(O)c2ccc3c(c2)B(O)OC3)cc1` (centres undefined), 5.76 µM.

`O=[N+]([O-])c1ccc(CSc2ccc(C(O)c3ccc4c(c3)B(O)OC4)cc2)cc1` (centres undefined): the 50% inhibitory concentration (IC50) amounted to 7.16 µM. Turning to `COC(=O)c1ccc(C(O)c2ccc3c(c2)B(O)OC3)cc1` (centres undefined), the concentration for half-maximal inhibition (IC50) turned out to be 18.5 µM. Still for that read-out and setting: under `COc1ccc(C(O)c2ccc3c(c2)B(O)OC3)cc1OC` (centres undefined) stands 67.8 µM; under `NC(=O)CSc1ccc(C(O)c2ccc3c(c2)B(O)OC3)cc1` (centres undefined), 10.2 µM; under `OB1OCc2ccc(C(O)c3ccc(N4CCOCC4)cc3)cc21` (centres undefined), 10.3 µM.

`CSc1ccc(C(O)c2ccc3c(c2)B(O)OC3)cc1` (centres undefined) gave a half-inhibitory concentration (IC50) of 3.95 µM. `OB1OCc2ccc(C(O)c3ccc(C(F)(F)F)cc3)cc21` (centres undefined): half-maximal inhibition (IC50) required 5.75 µM.

`CSc1ccccc1C(O)c1ccc2c(c1)B(O)OC2` (centres undefined) came in with a half-inhibitory concentration (IC50) of 57.1 µM. `O=C(O)CSc1ccc(C(O)c2ccc3c(c2)B(O)OC3)cc1` (centres undefined) gave an IC50 of 2.15 µM. With `OB1OCc2ccc(C(O)c3ccccc3)cc21` (centres undefined), the IC50 was 2.13 µM. The same measure, in the same setting: under `N#CCSc1ccc(C(O)c2ccc3c(c2)B(O)OC3)cc1` (centres undefined) stands 3.89 µM; under `COc1cc(C(O)c2ccc3c(c2)B(O)OC3)cc(OC)c1OC` (centres undefined), above 640 µM. On the same count and under the same terms, under `O=Cc1ccc(C(O)c2ccc3c(c2)B(O)OC3)cc1` (centres undefined) stands 12.8 µM; under `OB1OCc2ccc(C(O)c3ccc(S)cc3)cc21` (centres undefined), 0.368 µM. `COc1ccc(C(O)c2ccc3c(c2)B(O)OC3)cc1` (centres undefined) came in with an IC50 of 23.2 µM. Still for that read-out and setting: under `COc1cccc(C(O)c2ccc3c(c2)B(O)OC3)c1` (centres undefined) stands 50.8 µM; under `OB1OCc2ccc(C(O)c3ccc(SCC4CCCCC4)cc3)cc21` (centres undefined), 8.76 µM.

For the origin of these results see ChEMBL document CHEMBL4673310, “Discovery of benzhydrol-oxaborole derivatives as Streptococcus pneumoniae leucyl-tRNA synthetase inhibitors” (Bioorg Med Chem, 2021).
